The structures appear in SMILES notation. Where two headings read alike, the source gives them in different places. Where only a bound is given, the exact number is not on record here.

The format of series [1] is in vivo, human.
The format of series [2] is in vivo, human. This is another data set of the same source.
The conditions of series [3]: with diltiazem; cited from earlier work.
The conditions of series [4]: cited from earlier work.
For series [5] the following is noted: cited from earlier work. The source holds these as a separate data set.
Series [6] in a line: Calcineurin inhibitor trough levels in transplant recipients. It counts as in vivo, human. To be noted: mean [SD].
For series [7] the following is noted: reference group of healthy subjects, abbreviated dosing schedule; cited from earlier work.
Where [8] appears, read: transplant recipients on tacrolimus, reference healthy subjects on apixaban + tacrolimus.
Where [9] appears, read: transplant recipients on cyclosporine compared to healthy subjects on apixaban alone.
Setting [10] is: transplant recipients on cyclosporine, reference healthy subjects on apixaban + cyclosporine.

As usually defined, the AUC(0-inf) is total exposure, with the tail of the curve extrapolated. One may read the Cmax as the peak of the concentration-time curve. One may read the Tmax as the time at which the peak concentration occurs. As usually defined, the AUC(0-t) is the area under the concentration-time curve up to a stated or last time point. As for `COc1ccc(-n2nc(C(N)=O)c3c2C(=O)N(c2ccc(N4CCCCC4=O)cc2)CC3)cc1` [apixaban], the “increase in plasma concentrations and total body exposures” value in series [1] (SOTRs on calcineurin inhibitors compared to healthy subjects on apixaban alone) is reported as 2 to 3 fold. For the same compound, the AUC(0-inf) in series [1] (human, plasma, oral, 10 mg) worked out at 5210 ng·h/mL; in series [1] (human, plasma, po, 10 mg), 4310 ng·h/mL; in series [2] (human, plasma, po, 10 mg) it was 5390 ng·h/mL. Further, the Cmax in series [1] (human, plasma, oral, 10 mg) was determined as 327 ng/mL; in series [1] (human, plasma, po, 10 mg), 353 ng/mL. The Tmax in series [1] (human, plasma, oral, 10 mg) was 1.4 h; in series [1] (tacrolimus transplant cohort, comparison group to patients that weighed <60 kg) it was 2.6 h. For the same compound, the AUC(0-t) worked out at 4240 ng·h/mL in series [1] (human, plasma, po, 10 mg) and 4990 ng·h/mL in series [2] (human, plasma, po, 10 mg). Besides, the peak level in series [1] (one participant (kidney 1) on tacrolimus) was > 500 ng/mL. Moreover, the “mean AUCs higher than the healthy participants” value in series [1] (tacrolimus group, patients with optimal renal function) is on record as 1.8 fold. Further, the “mean Cmax” value in series [1] (tacrolimus transplant cohort, patients that weighed <60 kg) came to 483 ng/mL. Moreover, the “apixaban CL/F” value in series [1] (tacrolimus transplant cohort, patients with creatinine levels of greater than 133 μmol/L) is listed as 1.9 L/h. The “GMR for apixaban AUC0-inf” value in series [1] (transplant recipients on tacrolimus compared to healthy subjects on apixaban alone) is listed as 224%; in series [1] (setting [8]), 285%; in series [2] (setting [9]) it was 280%; in series [2] (setting [10]), 229%. Also, in series [1] (setting [8]), the “GMR for apixaban AUC0-tlast” value is on record as 309%. In addition, the entries for the “GMR for apixaban Cmax” value in series [2] (setting [9]) and in series [2] (setting [10]) were 256% and 179%, respectively. Further, the “increase in apixaban AUC” value in series [3] is recorded as 1.4 fold. Besides, the “increase in apixaban Cmax” value in series [3] is on record as 1.3 fold. Moreover, the “apixaban dose removed by the kidneys” value in series [4] was 27%. In addition, the solubility classification entry in series [5] is reported as “high solubility”.

Regarding `C=CC[C@@H]1/C=C(\C)C[C@H](C)C[C@H](OC)[C@H]2O[C@@](O)(C(=O)C(=O)N3CCCC[C@H]3C(=O)O[C@H](/C(C)=C/[C@@H]3CC[C@@H](O)[C@H](OC)C3)[C@H](C)[C@@H](O)CC1=O)[C@H](C)C[C@@H]2OC` [tacrolimus], the mean trough level in series [6] (after apixaban administration) was 8.0 [2.7] ng/ml; in series [6] (before apixaban administration (steady-state)) it was 7.4 (1.5) ng/ml. Moreover, in series [7], the trough level is listed as 3.8 (2.3) ng/ml.

The values are drawn from PMC9283751 (Clinical and Translational Science, 2022).
